Measurements from patent US8524902B2, “[1,2,4]triazolo[4,3-f]pteridines useful as inhibitors of protein kinases” (Vertex Pharmaceuticals Incorporated, priority 2006, dated 2013).

The molecules below were run against T1, Plk1 (Homo sapiens, UniProt P53350) (assay: Plk1 inhibition assay (radioactive-phosphate incorporation)). Conditions: Ki(app) from [γ-33P]ATP incorporation, 25° C.
T1 construct: in the presence of 15 nM Plk1 (A20-K338)
Type: biochemical
Description: Compounds of the present invention may be evaluated as inhibitors of human PLK kinase using the following assays.
Compounds were screened for their ability to inhibit Plk1 using a radioactive-phosphate incorporation assay. Assays were carried out in a mixture of 25 mM HEPES (pH 7.5), 10 mM MgCl2, and 1 mM DTT. Final substrate concentrations were 50 μM [γ-33P]ATP (136 mCi 33P ATP/mmol ATP, Amersham Pharmacia Biotech/Sigma Chemicals) and 10 μM peptide (SAM68 protein Δ332-443). Assays were carried out at 25° C. in the presence of 15 nM Plk1 (A20-K338). An assay stock buffer solution was prepared containing all of the reagents listed above, with the exception of ATP and the test compound of interest. 30 μL of the stock solution was placed in a 96 well plate followed by addition of 2 μL of DMSO stock containing serial dilutions of the test compound (typically starting from a final concentration of 10 μM with 2-fold serial dilutions) in duplicate (final DMSO concentration 5%). The plate was pre-incubated for 10 minutes at 25° C. and the reaction initiated by addition of 8 μL [γ33P]ATP (final concentration 50 μM).
(§1) The reaction was stopped after 60 minutes by the addition of 100 μL 0.14M phosphoric acid. A multiscreen phosphocellulose filter 96-well plate (Millipore, Cat no. MAPHN0B50) was pretreated with 100 μL 0.2M phosphoric acid prior to the addition of 125 μL of the stopped assay mixture. The plate was washed with 4×200 μL 0.2M phosphoric acid. After drying, 100 μL Optiphase ‘SuperMix’ liquid scintillation cocktail (Perkin Elmer) was added to the well prior to scintillation counting (1450 Microbeta Liquid Scintillation Counter, Wallac).
After removing mean background values for all of the data points, Ki(app) data were calculated from non-linear regression analysis of the initial rate data using the Prism software package (GraphPad Prism version 3.0cx for Macintosh, GraphPad Software, San Diego Calif., USA).
Compounds were screened for their ability to inhibit Plk1 using a radioactive-phosphate incorporation assay. Assays were carried out in a mixture of 25 mM HEPES (pH 7.5), 10 mM MgCl2, 0.1% BSA, and 2 mM DTT. Final substrate concentrations were 150 μM (350 μM for determining values of <1 nM) [γ-33P]ATP (115 mCi 33P ATP/mmol ATP, Amersham Pharmacia Biotech/Sigma Chemicals) and 300 μM (450 μM for determining values of <1 nM) peptide (KKKISDELMDATFADQEAK) SEQ. ID NO. 1. Assays were carried out at 25° C. in the presence of 4 nM (1 nM for determining values of <1 nM) Plk1. An assay stock buffer solution was prepared containing all of the reagents listed above, with the exception of ATP and the test compound of interest. 30 μL of the stock solution was placed in a 96 well plate followed by addition of 2 μL of DMSO stock containing serial dilutions of the test compound (typically starting from a final concentration of 10 μM with 2-fold serial dilutions) in duplicate (final DMSO concentration 5%). The plate was pre-incubated for 10 minutes at 25° C. and the reaction initiated by addition of 8 μl [γ-33P]ATP (final concentration 150 μM (350 μM for determining values of <1 nM))).
as §1, with “90” for “60”, “minutes (240 minutes for determining values of <1 nM)” for “minutes”

T1 sequence (P53350 20-338): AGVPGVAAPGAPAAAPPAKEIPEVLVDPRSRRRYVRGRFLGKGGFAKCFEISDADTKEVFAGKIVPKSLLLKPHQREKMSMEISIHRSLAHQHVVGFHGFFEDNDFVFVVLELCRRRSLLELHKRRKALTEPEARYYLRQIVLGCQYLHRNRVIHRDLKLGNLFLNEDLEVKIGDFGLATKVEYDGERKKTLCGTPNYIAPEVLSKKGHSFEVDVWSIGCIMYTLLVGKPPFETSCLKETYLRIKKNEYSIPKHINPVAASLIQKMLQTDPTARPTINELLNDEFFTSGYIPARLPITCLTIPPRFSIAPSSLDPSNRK

Question: With `CC[C@@H]1c2nncn2-c2cnc(Nc3ccc(F)cc3)nc2N1C1CCCC1` [Compound I-35, (R)-5-cyclopentyl-4-ethyl-N-(4-fluorophenyl)-4,5-dihydro-[1,2,4]triazolo[4,3-f]pteridin-7-amine] as the molecule, how does the Ki read?
Answer: < 10 nM

Question: `CC[C@@H]1c2nncn2-c2cnc(Nc3ccc(C(=O)NC)cc3COC)nc2N1C1CCCC1` [Compound I-30, (R)-4-(5-cyclopentyl-4-ethyl-4,5-dihydro-[1,2,4]triazolo[4,3-f]pteridin-7-ylamino)-3-(methoxymethyl)-N-methylbenzamide] was tested. Which Ki did it give?
Answer: < 10 nM

Question: How did the Ki turn out when `CC[C@@H]1c2nncn2-c2cnc(Nc3ccc(C(F)(F)F)nc3)nc2N1C1CCCC1` [Compound I-40, (R)-5-cyclopentyl-4-ethyl-N-(6-(trifluoromethyl)pyridin-3-yl)-4,5-dihydro-[1,2,4]triazolo[4,3-f]pteridin-7-amine] was run?
Answer: 10 to 100 nM

Question: How did the Ki turn out when `CC[C@@H]1c2nnc(C)n2-c2cnc(Nc3ccc(C(=O)NC4CC4)cc3OC)nc2N1C1CCCC1` [Compound I-13, (R)-4-(5-cyclopentyl-4-ethyl-1-methyl-4,5-dihydro-[1,2,4]triazolo[4,3-f]pteridin-7-ylamino)-N-cyclopropyl-3-methoxybenzamide] was run?
Answer: < 10 nM

Question: For `CC[C@@H]1c2nncn2-c2cnc(Nc3ccncc3)nc2N1C1CCCC1` [Compound I-23, (R)-5-cyclopentyl-4-ethyl-N-(pyridin-4-yl)-4,5-dihydro-[1,2,4]triazolo[4,3-f]pteridin-7-amine], which Ki is on record?
Answer: < 10 nM

Question: Which Ki does the source give for `CC[C@@H]1c2nncn2-c2cnc(Nc3ccc(N4CCOCC4)cc3)nc2N1C1CCCC1` [Compound I-34, (R)-5-cyclopentyl-4-ethyl-N-(4-morpholinophenyl)-4,5-dihydro-[1,2,4]triazolo[4,3-f]pteridin-7-amine] here?
Answer: < 10 nM

Question: With `CC[C@@H]1c2nncn2-c2cnc(Nc3ccc(C(=O)NC)cc3Cl)nc2N1C1CCCC1` [Compound I-4, 4-((R)-5-cyclopentyl-4-ethyl-4,5-dihydro-[1,2,4]triazolo[4,3]pteridin-7-ylamino)-3-chloro-N-methylbenzamide] as the molecule, how does the Ki read?
Answer: < 10 nM

Question: With `CC[C@@H]1c2nncn2-c2cnc(Nc3ccc(-n4cccn4)cc3)nc2N1C1CCCC1` [Compound I-39, (R)—N-(4-(1H-pyrazol-1-yl)phenyl)-5-cyclopentyl-4-ethyl-4,5-dihydro-[1,2,4]triazolo[4,3-f]pteridin-7-amine] as the molecule, how does the Ki read?
Answer: < 10 nM

Question: Which Ki does the source give for `CC[C@@H]1c2nncn2-c2cnc(Nc3ccc(C(=O)NC4CC(F)(F)C4)cc3OC)nc2N1C1CCCC1` [Compound I-17, (R)-4-(5-cyclopentyl-4-ethyl-4,5-dihydro-[1,2,4]triazolo[4,3-f]pteridin-7-ylamino)-N-(3,3-difluorocyclobutyl)-3-methoxybenzamide] here?
Answer: < 10 nM

Question: `CC[C@@H]1c2nncn2-c2cnc(Nc3ccc(C(=O)N(C)C)cc3C)nc2N1C1CCCC1` [Compound I-5, 4-((R)-5-cyclopentyl-4-ethyl-4,5-dihydro-[1,2,4]triazolo[4,3]pteridin-7-ylamino)-N,N,3-trimethylbenzamide] was tested. Which Ki did it give?
Answer: < 10 nM
